For one assay, the system named is HEK 293T cells. Put plainly: Two plasmid DR-GFP/I-SceI double strand break repair (homologous recombination) assay. Format: cell-based, human. An excerpt:
In addition to being indispensable for the duplication of chromosomes, Pol δ also plays critical roles in various DNA repair pathways^32. It has been shown that Pol δ is the preferred polymerase for the D-loop extension during homologous recombination repair^33. Thus, we investigated the effect of zelpolib on HR efficiency. We used the two plasmid DR-GFP assay developed by Nakanishi et al^34, which is a modified version of the initial method^35. The first plasmid contains a mutant GFP that has lost the ability to fluoresce. The second plasmid contains the coding region of a restriction enzyme, I-SceI. The co-transfection of the two plasmids will result in the expression of I-SceI, which can digest the DR-GFP plasmid at the mutation site leading to the formation of a double strand break. […] Therefore, the percentage of fluorescent cells is the readout of the efficacy of HR. […] The efficacy of HR was analyzed about 40 hours later by flow cytometry.
The efficacy of homologous recombination was analyzed by a two-plasmids system according to published protocol^34,35. […] Cellular fluorescence for GFP was measured by flow cytometry (Beckman coulter, MoFlo XDP). About 32,000 cells were analyzed per sample. […] The experiment was repeated three more times and statistics were calculated using GraphPad prism software.

The test system of another assay is BxPC-3 cells. Nature of the assay: EdU incorporation by laser scanning cytometry. Format: cell-based, human. The settings on record: 10 and 20 μM; 1 to 2 hours pre-incubation, then EdU pulse.
The target in the next assay is T1, Pol δ (Homo sapiens, UniProt P28340).
T1 construct: made in house; host or cells: insect cells (Pol δ); E. coli (PCNA)
Put plainly: primer extension assay (25 mer primer/40 mer template). It is filed as biochemical. The settings on record: 20 μM inhibitor. The source says: Next, we investigated the inhibitory properties of zelpolib in a primer extension assay^17,18 with a template that consists of all four deoxynucleotide that is more reflective of cellular DNA replication processes than the pold(A) template. The substrate consisted of a 25 mer primer hybridized to a 40 mer template. In the presence of PCNA and dNTPs, the primers were extended upon addition of Pol δ and a full extension would generate a 40 mer copy of the template. The primers were labeled at the 5′-end with ^32P, and the products were separated on a sequencing gel for visualization and quantification. […] The idea originated from the fact that most kinase inhibitors compete for binding with ATP. It is conceivable that they might compete with dATP for binding to polymerases. We randomly selected 10 small-molecule-cancer drugs with nine being kinase inhibitors^19 and one parp inhibitor (olaparib)^20. […] In the presence of any other inhibitors, at least 30% of the primers were extended.
Recombinant Pol […] were expressed in insect cells and purified as reported previously^18. […]
Briefly, the standard reaction mixture contained 5 μM dNTP, 5 mM MgCl2, 50 mM Tris-HCl (pH 7.5), 2 mM dithiothreitol, […] BSA, 50 mM NaCl, 20 nM primer/template, 50 nM PCNA, 10 nM Pol δ and variable concentrations of inhibitors. […] Products was visualized on phosphorimager and quantitated using Image-J software. […]

T1 sequence (P28340 whole entry): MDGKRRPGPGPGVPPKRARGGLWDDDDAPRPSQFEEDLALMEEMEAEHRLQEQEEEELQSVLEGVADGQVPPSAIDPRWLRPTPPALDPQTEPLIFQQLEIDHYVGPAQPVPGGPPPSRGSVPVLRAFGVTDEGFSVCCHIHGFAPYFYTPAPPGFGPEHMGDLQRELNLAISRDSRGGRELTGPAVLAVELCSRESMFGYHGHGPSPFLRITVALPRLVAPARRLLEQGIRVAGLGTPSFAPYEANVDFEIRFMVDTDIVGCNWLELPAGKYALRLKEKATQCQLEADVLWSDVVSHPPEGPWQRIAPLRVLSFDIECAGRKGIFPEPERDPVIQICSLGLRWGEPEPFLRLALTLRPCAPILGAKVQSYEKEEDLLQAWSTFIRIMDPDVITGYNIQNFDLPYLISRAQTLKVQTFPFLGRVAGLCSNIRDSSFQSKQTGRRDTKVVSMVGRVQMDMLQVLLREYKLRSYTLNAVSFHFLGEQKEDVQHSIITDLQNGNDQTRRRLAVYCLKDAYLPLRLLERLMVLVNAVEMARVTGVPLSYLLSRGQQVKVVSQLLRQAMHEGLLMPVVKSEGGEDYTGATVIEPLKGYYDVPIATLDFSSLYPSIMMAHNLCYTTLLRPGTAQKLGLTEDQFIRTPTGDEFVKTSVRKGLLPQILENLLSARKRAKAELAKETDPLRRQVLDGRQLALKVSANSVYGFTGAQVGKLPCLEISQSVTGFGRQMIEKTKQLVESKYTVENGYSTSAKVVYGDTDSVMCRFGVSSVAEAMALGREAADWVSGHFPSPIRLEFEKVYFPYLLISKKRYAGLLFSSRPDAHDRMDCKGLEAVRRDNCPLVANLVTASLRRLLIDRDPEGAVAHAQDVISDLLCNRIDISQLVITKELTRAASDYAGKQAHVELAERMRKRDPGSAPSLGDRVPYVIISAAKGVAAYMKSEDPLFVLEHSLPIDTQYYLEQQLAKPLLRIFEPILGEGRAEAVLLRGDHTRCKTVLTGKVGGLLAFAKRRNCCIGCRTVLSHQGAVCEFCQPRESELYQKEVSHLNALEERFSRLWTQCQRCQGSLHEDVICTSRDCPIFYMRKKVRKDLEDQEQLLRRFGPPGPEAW
T1 sequence (P49005 whole entry partner): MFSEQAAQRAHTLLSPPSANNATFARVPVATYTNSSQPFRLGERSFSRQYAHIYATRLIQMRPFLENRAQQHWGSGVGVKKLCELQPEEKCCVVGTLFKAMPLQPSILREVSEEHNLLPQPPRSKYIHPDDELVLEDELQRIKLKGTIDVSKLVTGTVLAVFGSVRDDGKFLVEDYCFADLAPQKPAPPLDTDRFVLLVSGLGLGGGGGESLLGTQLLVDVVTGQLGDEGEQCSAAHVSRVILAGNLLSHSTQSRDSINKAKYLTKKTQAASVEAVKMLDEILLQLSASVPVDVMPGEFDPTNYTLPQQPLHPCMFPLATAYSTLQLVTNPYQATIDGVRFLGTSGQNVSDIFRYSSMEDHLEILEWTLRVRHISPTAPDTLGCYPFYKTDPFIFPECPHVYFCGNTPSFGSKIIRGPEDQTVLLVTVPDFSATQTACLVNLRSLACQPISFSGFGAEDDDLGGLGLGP
T1 sequence (Q15054 whole entry partner): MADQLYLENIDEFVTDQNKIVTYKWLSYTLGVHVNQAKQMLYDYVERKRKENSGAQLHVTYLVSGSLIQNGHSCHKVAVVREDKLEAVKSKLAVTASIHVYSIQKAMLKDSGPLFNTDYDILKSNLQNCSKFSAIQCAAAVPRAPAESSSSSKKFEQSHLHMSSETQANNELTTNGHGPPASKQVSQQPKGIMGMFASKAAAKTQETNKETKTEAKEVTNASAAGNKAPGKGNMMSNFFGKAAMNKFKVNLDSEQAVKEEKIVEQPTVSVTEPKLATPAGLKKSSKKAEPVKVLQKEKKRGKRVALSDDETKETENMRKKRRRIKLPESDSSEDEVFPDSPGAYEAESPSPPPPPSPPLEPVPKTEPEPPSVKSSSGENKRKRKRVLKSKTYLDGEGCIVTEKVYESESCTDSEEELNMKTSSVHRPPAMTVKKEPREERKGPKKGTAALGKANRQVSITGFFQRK
T1 sequence (P12004 whole entry partner): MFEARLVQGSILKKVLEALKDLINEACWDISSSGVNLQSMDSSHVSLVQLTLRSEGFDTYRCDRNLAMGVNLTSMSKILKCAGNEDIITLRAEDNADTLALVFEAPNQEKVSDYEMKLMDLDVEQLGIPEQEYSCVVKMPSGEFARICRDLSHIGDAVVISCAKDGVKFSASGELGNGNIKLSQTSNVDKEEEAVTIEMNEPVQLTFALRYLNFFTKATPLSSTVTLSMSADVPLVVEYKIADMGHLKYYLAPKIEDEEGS

In the case of `COC(=O)c1cc(-c2ccccc2)sc1NC(=S)NNC(=O)CCc1ccc(O)c(O)c1` [zelpolib], the “reduction in HR efficacy” value in the assay with HEK 293T cells (20 μM zelpolib) was “comparable to those induced by siRNA knockdown of BRCA1 or BRCA2 individually”. Also, the “inhibition of homologous recombination (percentage of GFP fluorescent cells)” value with HEK 293T cells (two concentrations, about 40 hours) is given as “dose-dependent inhibition of HR”. Moreover, the “EdU incorporation versus sham treatment” value in the assay with BxPC-3 cells is “significant reduction of EdU incorporation”. At Pol δ, the “full-length product (40 mer) formed” value is “barely detectible” and the primer unextended is listed as 94%.

Values taken from patent US11324720B2, “Antiproliferative DNA polymerase inhibitor” (NEW YORK MEDICAL COLLEGE, priority 2018, dated 2022).
